The results in this text go back to US20230047816A1 (priority 2018, published 2023).

The assay deals with neurons from Cln7 knock out (KO) mice. Put plainly: In vitro model of Batten disease, active Caspase-3 Western blot. It counts as cell-based, mouse. The note with it: 10 nM, 24 hours. The protocol:
Primary cultures of C57BL/6J WT and Cln7Δex2 mice cortical neurons were prepared from fetal animals of 14.5 days of gestation, seeded at 1.8·10^5 cells/cm2 in plastic plates coated with poly-D-lysine […] and incubated in Neurobasal (Life Technologies) supplemented with 2 mM glutamine, 5 mM of glucose, 0.25 mM pyruvate and 2% B27 supplement (Life Technologies). Cells were incubated at 37° C. in a humidified 5% CO2-containing atmosphere. At 72 hours after plating, medium was replaced using Neurobasal (Life Technologies) supplemented with 2 mM glutamine, 5 mM glucose, 0.25 mM pyruvate and 2% B27 supplement (Life Technologies) minus antioxidants (MAO; i.e., lacking vitamin E, vitamin E acetate, superoxide dismutase, catalase, and glutathione). Six days after the plating medium was replaced again. Cells were used at day 9.
Neurons were incubated with 10 nM or vehicle for 24 hours and apoptosis was evaluated by measuring the level of active Caspase-3 form using Western blot. Neurons were lysed in RIPA buffer (2% sodium dodecylsulphate, 2 mM EDTA, 2 mM EGTA and 50 mM Tris pH 7.5), supplemented with protease and phosphatase inhibitor cocktail (100 μM phenylmethylsulfonyl fluoride, 50 μg/ml antipapain, 50 μg/ml pepstatin, 50 μg/ml amastatin, 50 μg/ml leupeptin, 50 μg/ml bestatin, 1 mM o-vanadate, 50 mM NaF, and 50 μg/ml soybean trypsin inhibitor) and boiled for 5 min. […]

`Cc1noc(C)c1Cn1cc(C#N)c2cc(Oc3ccc(NC(=O)[C@@H]4CCCN4)cc3)ccc21` [AZ67, (2S)-N-[4-({3-cyano-1-[(3,5-dimethyl-1,2-oxazol-4-yl)methyl]-1H-indol-5-yl}oxy)phenyl]pyrrolidine-2-carboxamide]: the “apoptosis level (active Caspase-3)” value is “significantly reduced”.
